Values quoted from earlier work in paper PMC4907212, “Mucosal and blood-brain barrier transport kinetics of the plant N-alkylamide spilanthol using in vitro and in vivo models” (BMC Complementary and Alternative Medicine, 2016).

Parameters: method as in PMID 19399718
Conditions: plasma, oral gavage in rats; cited from earlier work

dodeca-2E,4E,8E,10E/Z-tetraenoic acid isobutylamides
elimination half-life: 1.2 h
